For one assay, the system named is mucin MUC2. The assay is described as follows: Mucin MUC2 immunostaining of colon sections. It is filed as in vivo, male F344 rats. Conditions: 40 ppm in diet, AOM-treated rats. The protocol:
Animals were treated as described in Example 27. Colon samples from each group were harvested at autopsy and fixed in 10% formalin for 24 hr. They were sectioned into 8 to 10 segments, paraffin embedded, and microtomed into 4 μm thick tissue sections. The slides were incubated overnight at room temperature with antibody to proliferating cell nuclear antigen (PCNA) (1:1000 diluted, BD Pharmingen, San Diego, Calif.), iNOS (1:100 diluted, Santa Cruz Biotechnology, Santa Cruz, Calif.), or mucin MUC2 (1:250 diluted, Santa Cruz Biotechnology, Santa Cruz, Calif.).
The slides were incubated with the biotinylated secondary antibody, and then with avidin/biotinylated peroxidase complex for 30 min at room temperature (Vector Labs, Burlingame, Calif.), and were incubated with […] (DAB) substrate. The sections were then counter-stained with Modified Harris Hematoxylin. The images were taken randomly at 400× using Zeiss AxioCam HRc camera fitted to a Zeiss Axioskope 2 Plus microscope. A positive reaction is noted by a reddish brown precipitate in the nucleus for PCNA, in the cytoplasm for iNOS or in the colon crypts for mucin MUC2.

A further assay deals with cyclin D1. The assay is described as follows: Western blot of cyclin D1 in HT-29 cells. To be noted: 9 h or 18 h, especially at 9 h. It is filed as cell-based, human. As to the method: The cells were incubated with different concentrations of pterostilbene for 1, 2 and 3 days, and cell proliferation was estimated by measuring [^3H]thymidine incorporated into DNA. […] In order to evaluate whether pterostilbene potentiates cell cycle arrest or apoptosis in HT-29 cells, the effect of pterostilbene on the proteins regulating the cell cycle and/or apoptosis pathways was examined. Cells treated with pterostilbene for 9 h or 18 h were harvested and protein samples were analyzed by Western blotting (FIG. 8B).
(§1) The cell culture conditions and the reagents used in this example were described in Example 32. Whole cell extracts were collected after the various treatments and analyzed by western blotting. The protein samples were separated on 4-15% SDS-PAGE gels (Biorad, Hercules, Calif.) followed by transfer to a polyvinylidene fluoride membrane. The membranes were blocked with 5% milk in Tris buffer for 1 h and then incubated with the appropriate primary antibody solutions overnight at 4° C. The membranes were washed with Tris buffer, and incubated with horseradish peroxidase conjugated secondary antibody solutions for 1 h at room temperature.
The protein bands were visualized using a chemiluminescence based kit from Amersham Biosciences (Buckinghamshire, UK). […]

A further assay concerns IκBα. Nature of the assay: Western blot of IκBα after cytokine treatment of HT-29 cells. Format: cell-based, human. To be noted: cytokine treatment 15 min. As to the method: as §1
The protein bands were visualized using a chemiluminescence based kit from Amersham Biosciences (Buckinghamshire, UK). The primary antibodies against iNOS, COX-2, IκBα, cyclin D1, c-myc (Santa Cruz Bio-technology, Santa Cruz, Calif.), phospho-STAT3, phospho-Erk1/2, phospho-JNK1/2, phospho-p38, phospho-Akt, phospho-ATF2, phospho-Elk1, PARP (Cell Signaling Technology Inc., Beverly, Mass.) and actin (Sigma, St. Louis, Mo.) and secondary antibodies (Santa Cruz Biotechnology, Santa Cruz, Calif.) were used for probing the abundance of the target protein in the samples.
The significance of the JAK-STAT pathway in HT-29 cells was evaluated by probing for phospho-STAT3. Cytokines activated the STAT pathway, as shown by a strong induction of phospho-STAT3.
Background: In western blotting, separated proteins are transferred to a membrane and probed.

Turning to `COc1cc(/C=C/c2ccc(O)cc2)cc(OC)c1` [pterostilbene, (E)-4-(3,5-dimethoxystyryl)phenol], the “mucin MUC2 staining of colon mucosa” value in the assay with mucin MUC2 is given as “abundant secretion of mucin MUC2”. Moreover, the “cyclin D1 level” value with cyclin D1 is “effective in reducing”. Besides, in the assay on IκBα, the “effects on IκBα induced by the cytokines” value is given as “did not block”.

For the origin of these results see patent publication US8426369B2, “Prevention and treatment of colon cancer” (Rutgers, The State University of New Jersey, priority 2006, dated 2013).
